Measured values from PubChem BioAssay AID2060894 (Molecular Pharmacology Branch, DTP, NCI, 2025).

Tested on: K12877-001-R-J1-PDC complex spheroid viability
Assay: Anticancer human tumor K12877-001-R-J1-PDC patient-derived lung adenocarcinoma cell line growth inhibition [RAS]
Details: for IC50: curve of first compound; for viability, T/C: stronger effect = lower value; active means viability on the fitted dose curve at most 10% of control; inactive means the rest
Method in brief: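 Agents were tested in combination matrices in half-log decrements from a top concentration at or near clinical Cmax (10 microM if undetermined). Targets were multi-cell spheroids of tumour lines plus HUVEC and MSC stromal cells.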
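Further: spheroids exposed to agents for one week before readout.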
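Wherever viability, T/C is given: tumour cells co-cultured with HUVEC and mesenchymal stem cells in spheroids.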

C=CC(=O)N1CCN(c2nc(OCC3CCCN3C)nc3c(F)c(-c4nc(N)cc(C)c4C(F)(F)F)c(Cl)cc23)C(C)C1 (centres undefined) + CCn1c(-c2cc(N3CCN(C)CC3)cnc2C(C)OC)c2c3cc(ccc31)-c1csc(n1)CC(NC(=O)C1CC1C)C(=O)N1CCCC(N1)C(=O)OCC(C)(C)C2
inactive: viability, T/C (second compound 0.000949 µM, first compound 0.00316 µM) 80.8% | viability, T/C (second compound 0.000949 µM, first compound 0.01 µM) 71.5% | viability, T/C (second compound 0.000949 µM, first compound 0.0316 µM) 78.4% | viability, T/C (second compound 0.000949 µM, first compound 0.1 µM) 69.2% | viability, T/C (second compound 0.000949 µM, first compound 0.316 µM) 69.5% | viability, T/C (second compound 0.000949 µM, first compound 1 µM) 68% | viability, T/C (second compound 0.003 µM, first compound 0.00316 µM) 66.2% | viability, T/C (second compound 0.003 µM, first compound 0.01 µM) 66.7% | viability, T/C (second compound 0.003 µM, first compound 0.0316 µM) 66.4% | viability, T/C (second compound 0.003 µM, first compound 0.1 µM) 60.6% | viability, T/C (second compound 0.003 µM, first compound 0.316 µM) 62.7% | viability, T/C (second compound 0.003 µM, first compound 1 µM) 67% | viability, T/C (second compound 0.00949 µM, first compound 0.00316 µM) 69.7% | viability, T/C (second compound 0.00949 µM, first compound 0.01 µM) 62% | viability, T/C (second compound 0.00949 µM, first compound 0.0316 µM) 70.1% | viability, T/C (second compound 0.00949 µM, first compound 0.1 µM) 76.1% | viability, T/C (second compound 0.00949 µM, first compound 0.316 µM) 63.6% | viability, T/C (second compound 0.00949 µM, first compound 1 µM) 58.2% | viability, T/C (second compound 0.03 µM, first compound 0.00316 µM) 93.4% | viability, T/C (second compound 0.03 µM, first compound 0.01 µM) 84.5% | viability, T/C (second compound 0.03 µM, first compound 0.0316 µM) 92.3% | viability, T/C (second compound 0.03 µM, first compound 0.1 µM) 81.2% | viability, T/C (second compound 0.03 µM, first compound 0.316 µM) 81.2% | viability, T/C (second compound 0.03 µM, first compound 1 µM) 97.2% | viability, T/C (second compound 0.0949 µM, first compound 0.00316 µM) 116% | viability, T/C (second compound 0.0949 µM, first compound 0.01 µM) 95.8% | viability, T/C (second compound 0.0949 µM, first compound 0.0316 µM) 101% | viability, T/C (second compound 0.0949 µM, first compound 0.1 µM) 102% | viability, T/C (second compound 0.0949 µM, first compound 0.316 µM) 97.6% | viability, T/C (second compound 0.0949 µM, first compound 1 µM) 98% | viability, T/C (second compound 0.3 µM, first compound 0.00316 µM) 96.8% | viability, T/C (second compound 0.3 µM, first compound 0.01 µM) 93.4% | viability, T/C (second compound 0.3 µM, first compound 0.0316 µM) 90.7% | viability, T/C (second compound 0.3 µM, first compound 0.1 µM) 88.6% | viability, T/C (second compound 0.3 µM, first compound 0.316 µM) 84.3% | viability, T/C (second compound 0.3 µM, first compound 1 µM) 91.1%
> 1000 nM: IC50 (second compound 0.000949 µM) | IC50 (second compound 0.003 µM) | IC50 (second compound 0.00949 µM) | IC50 (second compound 0.03 µM) | IC50 (second compound 0.0949 µM) | IC50 (second compound 0.3 µM)

CC1(C)CCC(Nc2ncc(C(F)(F)F)c(-c3c[nH]c4c(P(C)(C)=O)c(C#N)ccc34)n2)CN1 (centres undefined) + CCn1c(-c2cc(N3CCN(C)CC3)cnc2C(C)OC)c2c3cc(ccc31)-c1csc(n1)CC(NC(=O)C1CC1C)C(=O)N1CCCC(N1)C(=O)OCC(C)(C)C2
45.9 nM: IC50 (second compound 0.003 µM)
30.8 nM: IC50 (second compound 0.0949 µM)
inactive: viability, T/C (second compound 0.000949 µM, first compound 0.000949 µM) 84.8% | viability, T/C (second compound 0.000949 µM, first compound 0.003 µM) 77.5% | viability, T/C (second compound 0.000949 µM, first compound 0.00949 µM) 78.1% | viability, T/C (second compound 0.000949 µM, first compound 0.03 µM) 57.4% | viability, T/C (second compound 0.000949 µM, first compound 0.0949 µM) 35.8% | viability, T/C (second compound 0.000949 µM, first compound 0.3 µM) 28% | viability, T/C (second compound 0.003 µM, first compound 0.000949 µM) 73.1% | viability, T/C (second compound 0.003 µM, first compound 0.003 µM) 66.7% | viability, T/C (second compound 0.003 µM, first compound 0.00949 µM) 65.3% | viability, T/C (second compound 0.003 µM, first compound 0.03 µM) 58% | viability, T/C (second compound 0.003 µM, first compound 0.0949 µM) 37.9% | viability, T/C (second compound 0.003 µM, first compound 0.3 µM) 29.1% | viability, T/C (second compound 0.00949 µM, first compound 0.000949 µM) 68.2% | viability, T/C (second compound 0.00949 µM, first compound 0.003 µM) 71.7% | viability, T/C (second compound 0.00949 µM, first compound 0.00949 µM) 61.5% | viability, T/C (second compound 0.00949 µM, first compound 0.03 µM) 50.7% | viability, T/C (second compound 0.00949 µM, first compound 0.0949 µM) 31.8% | viability, T/C (second compound 0.00949 µM, first compound 0.3 µM) 32.1% | viability, T/C (second compound 0.03 µM, first compound 0.000949 µM) 76% | viability, T/C (second compound 0.03 µM, first compound 0.003 µM) 70.6% | viability, T/C (second compound 0.03 µM, first compound 0.00949 µM) 72.4% | viability, T/C (second compound 0.03 µM, first compound 0.03 µM) 50.8% | viability, T/C (second compound 0.03 µM, first compound 0.0949 µM) 37% | viability, T/C (second compound 0.03 µM, first compound 0.3 µM) 36.2% | viability, T/C (second compound 0.0949 µM, first compound 0.000949 µM) 111% | viability, T/C (second compound 0.0949 µM, first compound 0.003 µM) 113% | viability, T/C (second compound 0.0949 µM, first compound 0.00949 µM) 88.6% | viability, T/C (second compound 0.0949 µM, first compound 0.03 µM) 50.5% | viability, T/C (second compound 0.0949 µM, first compound 0.0949 µM) 39.5% | viability, T/C (second compound 0.0949 µM, first compound 0.3 µM) 33.5% | viability, T/C (second compound 0.3 µM, first compound 0.000949 µM) 97.8% | viability, T/C (second compound 0.3 µM, first compound 0.003 µM) 98.7% | viability, T/C (second compound 0.3 µM, first compound 0.00949 µM) 72.6% | viability, T/C (second compound 0.3 µM, first compound 0.03 µM) 53.8% | viability, T/C (second compound 0.3 µM, first compound 0.0949 µM) 42.2% | viability, T/C (second compound 0.3 µM, first compound 0.3 µM) 37%
32.2 nM: IC50 (second compound 0.03 µM)
37.6 nM: IC50 (second compound 0.3 µM)
45 nM: IC50 (second compound 0.000949 µM)
27.4 nM: IC50 (second compound 0.00949 µM)
